Results reported in patent US8012959B2, “Diaminopyrimidinecarboxamide derivative” (Astellas Pharma Inc., priority 2002, dated 2011).

How the values were obtained:
T cells = experiment: Th2 differentiation (IL-4 production by differentiated mouse spleen T cells, ELISA); assay type: cell-based; conditions: inhibition of Th2 differentiation (IL-4 production, ELISA), C57BL/6 mouse spleen T cells
Protocol: Measurement of Th2 Differentiation
T cells were prepared by removing nylon wool (Wako Pure Chemical Industries)-adhering cells from C57BL/6 mouse (Charles River Japan) spleen cells. Using a 96 well plate to which an anti-CD3ε antibody (10 μg/ml) (Sederlane) had been immobilized in advance, T cells (2×10^5 cells/0.2 ml) were inoculated under stimulation with anti-CD28 antibody (1 μg/ml) (Pharmingen), IL-2 (10 ng/ml) (Peprotech) and IL-4 (10 ng/ml) (Peprotech). After 2 days of the culturing, total volume of the cell suspension was diluted to 2 ml with a medium containing IL-2 (10 ng/ml) and IL-4 (10 ng/ml). The differentiation was induced by further carrying out the culturing for 3 days. By counting the cell density, the cells after differentiation were adjusted to 1×10^6 cells/ml and inoculated into a 96 well plate immobilized with the anti-CD3 ε antibody, in order to induce IL-4 production. The supernatant after 24 hours of the stimulation was recovered, and the IL-4 production was determined by an ELISA method. The antibody used in the ELISA was purchased from Pharmingen. Also, an HRPO-labeled streptoavidin (Amersham Pharmacia) was used in the detection of biotinylated antibody, and a peroxidase color developing reagent (Sumitomo Bakelite) was used in the HRPO color development. In the case of the evaluation of compounds, compound dilutions were added to the wells before the addition of T cells, at the time of the dilution 2 days later, compounds equivalent to the initial concentration were added. Also, regarding the dilution of compounds, dilution was carried out using 10% FBS-containing RPMI 1640 such that the final concentration of DMSO in which each compound was dissolved became 0.1% or less. Inhibitory activity of each tested compound was evaluated in which the IL-4 production when DMSO was added instead of the compound was regarded as 100%, and the IL-4 production when anti-CD28 antibody and IL-4 were not added as 0%.

STAT 6 = target: T1, STAT 6 (Mus musculus, UniProt P52633); experiment: STAT 6-dependent reporter activity (IL-4-stimulated CI/FW4 luciferase reporter cell); assay type: cell-based, human
T1 construct: An STAT 6 reporter cell CI/FW4 was constructed by the above operation; endogenous in cells; host or cells: CI/FW4 (FW4 cell stably carrying the pGL2-CI/bs luciferase reporter)
T1 sequence (P52633 1-837): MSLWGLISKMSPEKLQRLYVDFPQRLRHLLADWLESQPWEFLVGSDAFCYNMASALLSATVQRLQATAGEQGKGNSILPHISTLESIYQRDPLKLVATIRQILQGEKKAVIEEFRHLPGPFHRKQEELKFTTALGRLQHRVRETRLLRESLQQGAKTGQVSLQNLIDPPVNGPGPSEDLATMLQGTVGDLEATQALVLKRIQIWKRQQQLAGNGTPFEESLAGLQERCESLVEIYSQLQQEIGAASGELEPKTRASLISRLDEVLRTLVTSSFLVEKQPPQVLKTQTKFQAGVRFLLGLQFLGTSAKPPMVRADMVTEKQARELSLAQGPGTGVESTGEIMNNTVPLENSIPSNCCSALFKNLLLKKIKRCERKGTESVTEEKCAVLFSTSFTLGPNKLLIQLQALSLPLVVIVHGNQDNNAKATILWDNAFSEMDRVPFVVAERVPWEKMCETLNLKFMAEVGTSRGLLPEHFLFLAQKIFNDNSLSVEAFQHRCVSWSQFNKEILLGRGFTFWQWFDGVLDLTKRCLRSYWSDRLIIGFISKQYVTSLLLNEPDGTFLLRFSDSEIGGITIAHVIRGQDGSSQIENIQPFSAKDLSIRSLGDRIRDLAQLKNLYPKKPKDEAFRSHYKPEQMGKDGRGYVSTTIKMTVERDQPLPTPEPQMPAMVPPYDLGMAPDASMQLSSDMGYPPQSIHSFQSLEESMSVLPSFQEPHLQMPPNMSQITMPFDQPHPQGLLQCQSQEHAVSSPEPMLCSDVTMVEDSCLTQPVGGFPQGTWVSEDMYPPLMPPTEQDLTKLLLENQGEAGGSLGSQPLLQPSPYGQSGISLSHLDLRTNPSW
Protocol: Measurement of STAT 6-Dependent Reporter Activity 1) Construction of STAT 6 Reactive Reporter Plasmid A STAT 6 reporter plasmid pGL2-CI was prepared by the following method. […] Also, […] sequence DNA molecules (SEQ ID NOs:3 and 4) contained in the adenovirus major late promoter were annealed and inserted into BglII and HindIII sites of the same vector. Thereafter, pGL2-CI/bs was constructed by inserting the blasticidin resistance gene of pUCSV-BD (Funakoshi) into BamHI site of the constructed pGL2-CI. 2) Construction of STAT 6 Reporter Cell Gene transfer of […] into a human IL-4 reactive cell FW4 cell (Mol. Cell. Biol., 14: 5433-5440) was carried out by the electroporation method (320 V, 960 μF/0.4 cm cuvette (Nippon Bio-Rad Laboratories)), and 6 μg/ml of blasticidin (Funakoshi) was added 40 hours thereafter to select a resistant cell. Confirmation of constant transfer of the reporter plasmid was carried out by detecting luciferase induce by IL-4 stimulation. An STAT 6 reporter cell CI/FW4 was constructed by the above operation. 3) STAT Reporter Assay Using CI/FW4 Cell Stimulation of the CI/FW4 cell (1×10^4 cells/0.1 ml) with 10 ng/ml of human IL-4 (Genzyme Techne) was carried out using a white 96 well plate (Nunc). In the case of the evaluation of compounds, compound dilutions were added to the wells before inoculating the cells into the 96 well plate. […] Thereafter, 50 μl of a luciferase substrate solution (10 mM Tris-HCl pH 7.8, 5 mM luciferin, 2 mM coenzyme A, 2 mM ATP, 0.5 mM MgCl2 and 2 mM Mg(OH)2) was added, followed by stirring for 1 minute. Then, the luciferase activity was measured using ML3000 luminometer (Dynatech Laboratories, Inc). Inhibitory activities of tested compounds were evaluated in which the luminescence intensity (relative light unit: […] The results are shown in the following Table 26.

inhibition of STAT 6-dependent reporter activity (activity similar to the compounds of Table 26) (STAT 6; CI/FW4 cell, 10 ng/ml human IL-4, luciferase) | inhibition at 0.1 µM (STAT 6; inhibition ratio at 0.1 μM compound, IL-4-stimulated CI/FW4 cell, luciferase) [%] | inhibition at 1 µM (STAT 6; inhibition ratio at 1 μM compound, IL-4-stimulated CI/FW4 cell, luciferase) [%] | SMILES | Inh (%) (T cells)
– | – | – | Cc1cccc(Nc2nc(NCCN)ncc2C(N)=O)c1 [ref 1, 2-(2-aminoethylamino)-4-(3-methylanilino)pyrimidine-5-carboxamide, reference compound] | 0
good activity | – | – | NC(=O)c1cnc(NCCc2cc(Cl)c(O)c(Cl)c2)nc1NCc1ccccc1 [Example 16] | 82
– | – | – | Cc1cccc(Nc2nc(N[C@@H]3CCCC[C@@H]3N)ncc2C(N)=O)c1 (relative stereo) [ref 2, 2-(cis-2-aminocyclohexylamino)-4-(3-methylanilino)pyrimidine-5-carboxamide, reference compound] | 0
– | 89 | 100 | NC(=O)c1cnc(NCCc2ccc(O)c(Cl)c2)nc1NCc1ccccc1 [Example 1, 4-benzylamino-2-{[2-(3-chloro-4-hydroxyphenyl)ethyl]amino}pyrimidine-5-carboxamide] | 88
